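At the GI50, growth is halved. TGI denotes the concentration required for complete inhibition of growth.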
Legend:
Test in all cases: NCI tumour cell line growth inhibition, 384-well format; in the data active = GI50 below about 0.43 µM; inactive = the rest
NCI-H23 lung = system: NCI-H23 lung
NCI-H322M lung = system: NCI-H322M lung
NCI-H460 NSCLC = system: NCI-H460 NSCLC
NCI-H522 lung = system: NCI-H522 lung
NCI/ADR-RES ovarian = system: NCI/ADR-RES ovarian
OVCAR-3 ovarian = system: OVCAR-3 ovarian
OVCAR-4 ovarian = system: OVCAR-4 ovarian
OVCAR-5 ovarian = system: OVCAR-5 ovarian
OVCAR-8 ovarian = system: OVCAR-8 ovarian
PC-3 prostate = system: PC-3 prostate
RPMI-8226 leukemia = system: RPMI-8226 leukemia
RXF 393 renal = system: RXF 393 renal
SF-268 CNS = system: SF-268 CNS
SF-295 CNS = system: SF-295 CNS
SF-539 CNS = system: SF-539 CNS
SK-MEL-2 melanoma = system: SK-MEL-2 melanoma
SK-MEL-28 melanoma = system: SK-MEL-28 melanoma
SK-MEL-5 melanoma = system: SK-MEL-5 melanoma
SK-OV-3 ovarian = system: SK-OV-3 ovarian
SN12C renal = system: SN12C renal
SNB-19 CNS = system: SNB-19 CNS
SNB-75 CNS = system: SNB-75 CNS
SR leukemia = system: SR leukemia
SW-620 colon = system: SW-620 colon
T-47D breast = system: T-47D breast
TK-10 renal = system: TK-10 renal
U251 glioblastoma = system: U251 glioblastoma
UACC-257 melanoma = system: UACC-257 melanoma
UACC-62 melanoma = system: UACC-62 melanoma
UO-31 renal = system: UO-31 renal

O=C1Cc2cc(C(=O)NC3C[C@H]4CC[C@@H](C3)N4S(=O)(=O)CC3CCN(CCCC(F)(F)F)CC3)c(Cl)cc2N1 (some centres undefined)
> 74.7 µM: TGI (PC-3 prostate)
47.5 µM: TGI (UO-31 renal)
> 73.1 µM: TGI (OVCAR-5 ovarian)
> 57.5 µM: TGI (SK-MEL-5 melanoma)
> 61.9 µM: TGI (OVCAR-8 ovarian)
99.3 µM: TGI (SR leukemia)
> 58.9 µM: TGI (NCI-H522 lung)
> 59.3 µM: TGI (RPMI-8226 leukemia)
> 100 µM: TGI (NCI-H322M lung) | TGI (NCI-H460 NSCLC) | TGI (NCI/ADR-RES ovarian) | TGI (OVCAR-4 ovarian) | TGI (RXF 393 renal) | TGI (SF-268 CNS) | TGI (SF-295 CNS) | TGI (SF-539 CNS) | TGI (SK-MEL-2 melanoma) | TGI (SK-MEL-28 melanoma) | TGI (SN12C renal) | TGI (SNB-75 CNS) | TGI (SW-620 colon) | TGI (T-47D breast) | TGI (U251 glioblastoma) | TGI (UACC-257 melanoma) | TGI (UACC-62 melanoma)
> 65.3 µM: TGI (TK-10 renal)
inactive: GI50 (NCI-H322M lung) > 100 µM | GI50 (NCI-H460 NSCLC) > 100 µM | GI50 (NCI-H522 lung) > 44.7 µM | GI50 (NCI/ADR-RES ovarian) > 100 µM | GI50 (OVCAR-3 ovarian) > 45 µM | GI50 (OVCAR-4 ovarian) > 100 µM | GI50 (OVCAR-5 ovarian) > 49.9 µM | GI50 (OVCAR-8 ovarian) > 44.1 µM | GI50 (PC-3 prostate) > 52.1 µM | GI50 (RPMI-8226 leukemia) > 45.6 µM | GI50 (RXF 393 renal) > 78.5 µM | GI50 (SF-268 CNS) > 100 µM | GI50 (SF-295 CNS) > 100 µM | GI50 (SF-539 CNS) > 100 µM | GI50 (SK-MEL-2 melanoma) > 87 µM | GI50 (SK-MEL-28 melanoma) > 100 µM | GI50 (SK-MEL-5 melanoma) > 43.5 µM | GI50 (SK-OV-3 ovarian) > 47.3 µM | GI50 (SN12C renal) > 62.4 µM | GI50 (SNB-19 CNS) > 49.8 µM | GI50 (SNB-75 CNS) > 100 µM | GI50 (SR leukemia) 38.7 µM | GI50 (SW-620 colon) > 58.1 µM | GI50 (T-47D breast) 60.3 µM | GI50 (TK-10 renal) > 46.4 µM | GI50 (U251 glioblastoma) > 100 µM | GI50 (UACC-257 melanoma) > 100 µM | GI50 (UACC-62 melanoma) > 100 µM | GI50 (UO-31 renal) 23.2 µM
> 71.2 µM: TGI (NCI-H23 lung)
> 74.9 µM: TGI (SNB-19 CNS)
> 72.8 µM: TGI (SK-OV-3 ovarian)
> 63.5 µM: TGI (OVCAR-3 ovarian)

Reference: PubChem BioAssay (NCI)
